Values after ≈ are worked out from the molar mass of the structure shown.
What was measured:
[1] = tested on: membrane permeable strain (BAS3023) of Escherichia coli; settings: cited from earlier work
[2] = tested on: membrane permeable strain (BAS3023) of Escherichia coli; assay: Antibacterial MIC testing, microdilution, E. coli; format: cell-based; settings: 24 h; for E. coli MIC: membrane permeable strain of E. coli, cation-adjusted Mueller-Hinton Broth, 37°C
Bacillus subtilis [3] = settings: cited from earlier work
E. coli DNA gyrase = E. coli DNA gyrase (Escherichia coli, UniProt P0AES4+P0AES6); assay: E. coli DNA gyrase supercoiling assay; format: biochemical; settings: for E. coli DNA gyrase IC50: supercoiling assay, relaxed plasmid DNA
Chain of E. coli DNA gyrase (P0AES4 whole entry, one chain of several): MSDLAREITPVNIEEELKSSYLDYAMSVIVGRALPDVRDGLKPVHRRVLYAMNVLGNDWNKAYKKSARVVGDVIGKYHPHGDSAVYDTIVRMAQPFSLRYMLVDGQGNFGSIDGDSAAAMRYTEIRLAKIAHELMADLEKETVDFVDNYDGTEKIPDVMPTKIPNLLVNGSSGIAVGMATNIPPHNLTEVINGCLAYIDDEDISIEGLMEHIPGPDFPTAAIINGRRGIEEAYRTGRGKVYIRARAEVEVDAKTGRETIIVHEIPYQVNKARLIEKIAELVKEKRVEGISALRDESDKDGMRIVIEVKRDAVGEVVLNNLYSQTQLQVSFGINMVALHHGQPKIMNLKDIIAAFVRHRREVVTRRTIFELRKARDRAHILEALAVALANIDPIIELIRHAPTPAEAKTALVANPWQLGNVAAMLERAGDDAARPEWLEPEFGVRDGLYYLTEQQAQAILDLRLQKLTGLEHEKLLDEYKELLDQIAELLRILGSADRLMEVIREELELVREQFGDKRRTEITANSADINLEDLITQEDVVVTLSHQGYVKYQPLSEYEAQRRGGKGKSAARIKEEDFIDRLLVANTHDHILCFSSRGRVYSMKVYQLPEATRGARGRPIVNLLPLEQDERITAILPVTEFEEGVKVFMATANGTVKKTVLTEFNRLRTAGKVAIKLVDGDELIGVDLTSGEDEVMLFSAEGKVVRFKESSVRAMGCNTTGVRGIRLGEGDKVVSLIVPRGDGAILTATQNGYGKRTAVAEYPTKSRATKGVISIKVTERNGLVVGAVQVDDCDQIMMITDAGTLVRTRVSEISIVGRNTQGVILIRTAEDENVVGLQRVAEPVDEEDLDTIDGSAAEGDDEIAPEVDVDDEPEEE

Bacillus subtilis [4] = assay: Antibacterial MIC testing, microdilution, B. subtilis; format: cell-based; settings: for B. subtilis MIC: cation-adjusted Mueller-Hinton Broth, 24 h, 37°C; for MIC: Bacillus subtilis, read-out: MIC antibacterial activity
E. coli topoisomerase I = E. coli topoisomerase I (Escherichia coli, UniProt P06612); assay: E. coli topoisomerase I relaxation inhibition assay with supercoiled plasmid DNA; format: biochemical; settings: relaxation of supercoiled pBAD/Thio plasmid, 30 min at 37°C
Chain of E. coli topoisomerase I (P06612 whole entry): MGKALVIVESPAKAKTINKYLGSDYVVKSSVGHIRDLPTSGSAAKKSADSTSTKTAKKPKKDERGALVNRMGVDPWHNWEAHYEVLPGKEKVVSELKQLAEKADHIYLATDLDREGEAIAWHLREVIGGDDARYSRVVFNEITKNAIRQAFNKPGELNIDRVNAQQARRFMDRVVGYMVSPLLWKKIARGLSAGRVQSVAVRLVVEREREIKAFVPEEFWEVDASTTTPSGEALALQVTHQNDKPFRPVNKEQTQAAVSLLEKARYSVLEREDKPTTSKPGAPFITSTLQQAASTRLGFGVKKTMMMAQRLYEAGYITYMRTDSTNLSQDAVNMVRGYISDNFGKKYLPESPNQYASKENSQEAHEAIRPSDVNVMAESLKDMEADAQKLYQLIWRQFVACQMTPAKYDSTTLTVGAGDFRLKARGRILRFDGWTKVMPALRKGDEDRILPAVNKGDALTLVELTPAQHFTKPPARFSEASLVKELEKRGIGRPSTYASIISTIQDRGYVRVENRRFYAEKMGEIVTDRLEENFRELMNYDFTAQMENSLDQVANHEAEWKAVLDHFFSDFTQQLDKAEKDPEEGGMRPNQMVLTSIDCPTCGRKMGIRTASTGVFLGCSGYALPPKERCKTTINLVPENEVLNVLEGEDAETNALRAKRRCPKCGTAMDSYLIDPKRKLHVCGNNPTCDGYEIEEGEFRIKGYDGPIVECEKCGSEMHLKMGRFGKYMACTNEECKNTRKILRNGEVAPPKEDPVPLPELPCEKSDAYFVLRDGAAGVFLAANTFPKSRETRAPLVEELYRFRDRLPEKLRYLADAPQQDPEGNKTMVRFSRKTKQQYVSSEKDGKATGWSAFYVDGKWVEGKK

S. rolfsii = settings: cited from earlier work

For `CCCCCc1cc(OC(=O)c2c(O)cc(O)cc2CCCCC)cc(O)c1C(=O)O` [Anziaic acid (synthetic sample), anziaic acid], the “MIC against membrane permeable strain (BAS3023) of Escherichia coli” value [1] is given as 12 µg/mL, the “E. coli MIC” value [2] is given as 100 µM and the “MIC against Bacillus subtilis” value (Bacillus subtilis [3]) is given as 6 µg/mL (≈ 13.9 µM).

In the case of `CCCCCc1cc(O)cc(O)c1C(=O)O` [Compound 4, 2,4-dihydroxy-6-pentylbenzoic acid], the “E. coli MIC” value [2] is reported as “no inhibitory activity”, the IC50 (E. coli DNA gyrase) is reported as over 1000 µM and the “E. coli DNA gyrase IC50” value (E. coli DNA gyrase) is reported as “no inhibitory activity”. The “B. subtilis MIC” value (Bacillus subtilis [4]) was “no inhibitory activity”.

In the case of `CCCCCc1cc(OC(=O)c2c(CCCCC)cc(OCc3ccccc3)cc2OCc2ccccc2)cc(O)c1C(=O)OCc1ccccc1` [Compound 6, benzyl 4-((2,4-bis(benzyloxy)-6-pentylbenzoyl)oxy)-2-hydroxy-6-pentylbenzoate], the IC50 (E. coli DNA gyrase) is reported as over 1000 µM, the “E. coli DNA gyrase IC50” value (E. coli DNA gyrase) is reported as “inactive” and the “E. coli Topo I inhibition IC50” value (E. coli topoisomerase I) is reported as “inactive”.

In the case of `O=C(OCc1ccccc1)c1ccc(OC(=O)c2ccc(OCc3ccccc3)cc2OCc2ccccc2)cc1O` [Compound 10c], the IC50 (E. coli DNA gyrase) is reported as over 1000 µM.

For `O=C(O)c1ccc(OC(=O)c2ccc(O)cc2O)cc1O` [Compound 11c], the “E. coli MIC” value [2] was “complete loss”, the IC50 (E. coli DNA gyrase) was over 1000 µM and the “E. coli DNA gyrase IC50” value (E. coli DNA gyrase) was “complete loss”. For the same compound, the “B. subtilis MIC” value (Bacillus subtilis [4]) was “complete loss” and the “E. coli Topo I inhibition IC50” value (E. coli topoisomerase I) was “complete loss”.

With `CCCCCc1cc(O)cc(O)c1C(=O)Oc1cc(CCCCC)c2c(c1)OC(C)(C)OC2=O` [Compound 14] the IC50 (E. coli DNA gyrase) was over 1000 µM, the “E. coli DNA gyrase IC50” value (E. coli DNA gyrase) was “inactive” and the “E. coli Topo I inhibition IC50” value (E. coli topoisomerase I) was “inactive”.

In the case of `Nc1ccc(/N=N/c2ccccc2)c(N)c1` [Compound 18], the MIC ([2]; Escherichia coli, read-out: E. coli MIC) is reported as 200 to 400 µM (≈ 42.5 to 84.9 µg/mL) and the MIC (Bacillus subtilis [4]) is reported as 200 to 400 µM (≈ 42.5 to 84.9 µg/mL).

`O=C(O)c1cc(/N=N/c2cccc([N+](=O)[O-])c2)ccc1O` [Compound 19] gave an MIC (Bacillus subtilis [4]) of 200 to 400 µM (≈ 57.4 to 115 µg/mL).

In the case of `COC(=O)c1c(C)cc(OC(=O)c2c(C)cc(O)c(C=O)c2O)c(C)c1O` [atranorin], the “ED50 antifungal activity against S. rolfsii” value (S. rolfsii) is listed as 39.70 µg/mL (≈ 106 µM).

Reference: article PMC3867937 (MedChemComm, 2013)
